Biological target: T1, BRM (Homo sapiens, UniProt P51531)
T1 construct: Western Blot Screen of BRM Degradation in SW1573 Cells; endogenous in cells; host or cells: SW1573 cells
Test: BRM degradation (Dmax and DC50) in SW1573 cells, Western blot screen / In-Cell Western screen
Assay type: cell-based
Details: overnight (18-20 hours) treatment; for Dmax: read-out: Dmax (%)** (% degraded)
Summary of the method: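 Dmax and DC50 were derived from BRM levels normalised to an alpha-tubulin control, measured by chemiluminescent Western blotting of lysates or by PFA-fixed In-Cell Western on LI-COR Odyssey. SW1573 cells received compound overnight (18–20 h, 0.1% DMSO final).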

T1 sequence (P51531 whole entry): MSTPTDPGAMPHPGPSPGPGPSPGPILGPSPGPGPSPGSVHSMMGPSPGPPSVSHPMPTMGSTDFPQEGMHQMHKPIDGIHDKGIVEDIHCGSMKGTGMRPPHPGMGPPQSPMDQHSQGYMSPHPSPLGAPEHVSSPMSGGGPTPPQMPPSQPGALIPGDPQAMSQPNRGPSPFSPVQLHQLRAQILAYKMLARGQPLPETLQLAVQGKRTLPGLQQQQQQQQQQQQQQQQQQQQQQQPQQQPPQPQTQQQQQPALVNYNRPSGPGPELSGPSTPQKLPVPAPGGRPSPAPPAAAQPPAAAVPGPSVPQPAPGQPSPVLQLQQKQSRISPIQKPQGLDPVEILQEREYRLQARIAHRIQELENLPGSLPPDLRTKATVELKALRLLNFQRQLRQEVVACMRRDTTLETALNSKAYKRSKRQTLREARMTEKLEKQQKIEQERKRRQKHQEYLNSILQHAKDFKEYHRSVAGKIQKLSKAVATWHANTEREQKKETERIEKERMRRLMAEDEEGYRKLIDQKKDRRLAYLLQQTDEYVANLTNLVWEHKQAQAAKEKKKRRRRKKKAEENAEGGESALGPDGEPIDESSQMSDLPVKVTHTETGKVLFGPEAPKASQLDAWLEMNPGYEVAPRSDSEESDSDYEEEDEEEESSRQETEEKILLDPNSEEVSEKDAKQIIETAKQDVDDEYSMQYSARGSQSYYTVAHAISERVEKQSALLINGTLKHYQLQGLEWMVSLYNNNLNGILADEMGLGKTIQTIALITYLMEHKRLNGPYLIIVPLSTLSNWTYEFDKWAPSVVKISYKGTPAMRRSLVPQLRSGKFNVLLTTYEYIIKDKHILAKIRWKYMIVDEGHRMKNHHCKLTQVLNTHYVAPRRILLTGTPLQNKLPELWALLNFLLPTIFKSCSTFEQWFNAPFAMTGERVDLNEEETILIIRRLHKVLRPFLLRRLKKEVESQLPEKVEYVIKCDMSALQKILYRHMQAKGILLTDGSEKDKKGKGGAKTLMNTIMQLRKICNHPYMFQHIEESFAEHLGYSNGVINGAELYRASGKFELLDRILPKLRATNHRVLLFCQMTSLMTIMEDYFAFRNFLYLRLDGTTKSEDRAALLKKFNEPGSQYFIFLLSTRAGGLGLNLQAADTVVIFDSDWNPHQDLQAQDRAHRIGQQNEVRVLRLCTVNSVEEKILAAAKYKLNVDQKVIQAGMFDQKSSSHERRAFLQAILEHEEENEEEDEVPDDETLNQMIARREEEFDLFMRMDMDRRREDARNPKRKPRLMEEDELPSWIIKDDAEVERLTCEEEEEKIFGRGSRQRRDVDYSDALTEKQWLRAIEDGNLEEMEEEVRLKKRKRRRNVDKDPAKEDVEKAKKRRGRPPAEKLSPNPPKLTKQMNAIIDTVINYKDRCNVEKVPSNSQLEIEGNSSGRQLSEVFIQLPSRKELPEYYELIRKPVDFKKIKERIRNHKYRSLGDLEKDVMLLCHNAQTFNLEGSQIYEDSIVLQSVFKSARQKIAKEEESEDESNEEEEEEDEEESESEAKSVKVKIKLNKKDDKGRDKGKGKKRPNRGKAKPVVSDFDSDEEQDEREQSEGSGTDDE

Row | SMILES | DC50 | Dmax
1 | CC(C)[C@@H](C(=O)N1C[C@H](O)C[C@H]1C(=O)N[C@@H](C)c1ccc(-c2ccnn2C)cc1)c1cc(N2CCC(CN3CCC(O[C@H]4C[C@H](N5CCOC6(CCN(c7cc(-c8ccccc8O)nnc7N)CC6)C5)C4)CC3)CC2)no1 [Compound 28, (2S,4R)-4-hydroxy-N-[(1S)-1-[4-(1-methyl-1H-pyrazol-5-yl)phenyl]ethyl]-1-[(2R)-3-methyl-2-{3-[4-({4-[(1r,3r)-3-{9-[3-amino-6-(2-hydroxyphenyl)pyridazin-4-yl]-1-oxa-4,9-diazaspiro[5.5]undecan-4-yl}cyclobutoxy]piperidin-1-yl}methyl)piperidin-1-yl]-1,2-oxazol-5-yl}butanoyl]pyrrolidine-2-carboxamide] | < 2.5 nM | > 75%
2 | Cc1ncsc1-c1ccc([C@H](C)NC(=O)[C@@H]2C[C@@H](O)CN2C(=O)[C@@H](c2cc(N3CCC(CN4CCC5(CC4)CC(N4CCOC6(CN(CC7C8CCC7CN(c7cc(-c9ccccc9O)nnc7N)C8)C6)C4)C5)CC3)no2)C(C)C)cc1 (stereo partly drawn) [Compound 125, (2S,4R)-1-[(2R)-2-{3-[4-({2-[2-({3-[3-amino-6-(2-hydroxyphenyl)pyridazin-4-yl]-3-azabicyclo[3.2.1]octan-8-yl}methyl)-5-oxa-2,8-diazaspiro[3.5]nonan-8-yl]-7-azaspiro[3.5]nonan-7-yl}methyl)piperidin-1-yl]-1,2-oxazol-5-yl}-3-methylbutanoyl]-4-hydroxy-N-[(1S)-1-[4-(4-methyl-1,3-thiazol-5-yl)phenyl]ethyl]pyrrolidine-2-carboxamide] | < 2.5 nM | > 75%
3 | Cc1ncsc1-c1ccc([C@H](C)NC(=O)[C@@H]2C[C@@H](O)CN2C(=O)[C@@H](c2cc(N3CCC(CN4CCC(O[C@H]5C[C@H](N6CCC(C(C)n7ncc(-c8cc(-c9ccccc9O)nnc8N)c7F)CC6)C5)CC4)CC3)no2)C(C)C)cc1 (stereo partly drawn) [Compound 100, (2S,4R)-4-hydroxy-N-[(1S)-1-[4-(4-methyl-1,3-thiazol-5-yl)phenyl]ethyl]-1-[(2R)-3-methyl-2-{3-[4-({4-[(1r,3r)-3-[4-(1-{4-[3-amino-6-(2-hydroxyphenyl)pyridazin-4-yl]-5-fluoro-1H-pyrazol-1-yl}ethyl)piperidin-1-yl]cyclobutoxy]piperidin-1-yl}methyl)piperidin-1-yl]-1,2-oxazol-5-yl}butanoyl]pyrrolidine-2-carboxamide] | < 2.5 nM | > 75%
4 | Cc1ncsc1-c1ccc([C@H](C)NC(=O)[C@@H]2C[C@@H](O)CN2C(=O)[C@H](c2cc(N3CCC(O[C@H]4CC[C@H](Oc5cc(N6C7CCC6CN(c6cc(-c8ccccc8O)nnc6N)C7)ccn5)CC4)CC3)no2)C(C)C)cc1 [Compound 135, (2S,4R)-4-hydroxy-N-[(1S)-1-[4-(4-methyl-1,3-thiazol-5-yl)phenyl]ethyl]-1-[(2S)-3-methyl-2-[3-(4-{[(1r,4r)-4-[(4-{3-[3-amino-6-(2-hydroxyphenyl)pyridazin-4-yl]-3,8-diazabicyclo[3.2.1]octan-8-yl}pyridin-2-yl)oxy]cyclohexyl]oxy}piperidin-1-yl)-1,2-oxazol-5-yl]butanoyl]pyrrolidine-2-carboxamide] | ≥ 30 nM | –
5 | Cc1ncsc1-c1ccc([C@H](C)NC(=O)[C@@H]2C[C@@H](O)CN2C(=O)[C@@H](c2cc(N3CCC(CN4CC[C@@H](Oc5cc(N6C7CCC6CN(c6cc(-c8ccccc8O)nnc6N)C7)ccn5)[C@H](F)C4)CC3)no2)C(C)C)cc1 [Compound 59, (2S,4R)-1-[(2R)-2-[3-(4-{[(3R,4R)-4-[(4-{3-[3-amino-6-(2-hydroxyphenyl)pyridazin-4-yl]-3,8-diazabicyclo[3.2.1]octan-8-yl}pyridin-2-yl)oxy]-3-fluoropiperidin-1-yl]methyl}piperidin-1-yl)-1,2-oxazol-5-yl]-3-methylbutanoyl]-4-hydroxy-N-[(1S)-1-[4-(4-methyl-1,3-thiazol-5-yl)phenyl]ethyl]pyrrolidine-2-carboxamide] | 10 to 30 nM | > 75%
6 | Cc1ncsc1-c1ccc([C@H](C)NC(=O)[C@@H]2C[C@@H](O)CN2C(=O)[C@@H](c2cc(N3CCC(CN4CCC(O[C@H]5C[C@H](N6CCN(CC7(O)CCN(c8cc(-c9ccccc9O)nnc8N)CC7)CC6)C5)CC4)CC3)no2)C(C)C)cc1 [Compound 57, (2S,4R)-4-hydroxy-N-[(1S)-1-[4-(4-methyl-1,3-thiazol-5-yl)phenyl]ethyl]-1-[(2R)-3-methyl-2-{3-[4-({4-[(1r,3r)-3-[4-({1-[3-amino-6-(2-hydroxyphenyl)pyridazin-4-yl]-4-hydroxypiperidin-4-yl}methyl)piperazin-1-yl]cyclobutoxy]piperidin-1-yl}methyl)piperidin-1-yl]-1,2-oxazol-5-yl}butanoyl]pyrrolidine-2-carboxamide] | < 2.5 nM | > 75%
7 | Cc1ncsc1-c1ccc([C@H](C)NC(=O)[C@@H]2C[C@@H](O)CN2C(=O)[C@@H](c2cc(N3CCC(CN4CCC(O[C@H]5C[C@H](N6CCC(C(=O)N7C8CCC7CN(c7cc(-c9ccccc9O)nnc7N)C8)CC6)C5)CC4)CC3)no2)C(C)C)cc1 [Compound 25, (2S,4R)-4-hydroxy-N-[(1S)-1-[4-(4-methyl-1,3-thiazol-5-yl)phenyl]ethyl]-1-[(2R)-3-methyl-2-{3-[4-({4-[(1r,3r)-3-(4-{3-[3-amino-6-(2-hydroxyphenyl)pyridazin-4-yl]-3,8-diazabicyclo[3.2.1]octane-8-carbonyl}piperidin-1-yl)cyclobutoxy]piperidin-1-yl}methyl)piperidin-1-yl]-1,2-oxazol-5-yl}butanoyl]pyrrolidine-2-carboxamide] | < 2.5 nM | > 75%
8 | Cc1ncsc1-c1ccc([C@H](C)NC(=O)[C@@H]2C[C@@H](O)CN2C(=O)[C@@H](c2cc(N3CCC(CN4CCC5(CC4)CC(N4CCOC6(CC(CN7C8CCC7CN(c7cc(-c9ccccc9O)nnc7N)C8)C6)C4)C5)CC3)no2)C(C)C)cc1 [Compound 126, (2S,4R)-1-[(2R)-2-{3-[4-({2-[2-({3-[3-amino-6-(2-hydroxyphenyl)pyridazin-4-yl]-3,8-diazabicyclo[3.2.1]octan-8-yl}methyl)-5-oxa-8-azaspiro[3.5]nonan-8-yl]-7-azaspiro[3.5]nonan-7-yl}methyl)piperidin-1-yl]-1,2-oxazol-5-yl}-3-methylbutanoyl]-4-hydroxy-N-[(1S)-1-[4-(4-methyl-1,3-thiazol-5-yl)phenyl]ethyl]pyrrolidine-2-carboxamide] | 2.5 to 10 nM | > 75%
9 | Cc1ncsc1-c1ccc([C@H](C)NC(=O)[C@@H]2C[C@@H](O)CN2C(=O)[C@@H](c2cc(N3CCC(CN4CCC5(CC4)CC(N4CCO[C@@H](CNC6CCN(c7cc(-c8ccccc8O)nnc7N)CC6)C4)C5)CC3)no2)C(C)C)cc1 [Compound 113, (2S,4R)-1-[(2R)-2-{3-[4-({2-[(2S)-2-[({1-[3-amino-6-(2-hydroxyphenyl)pyridazin-4-yl]piperidin-4-yl}amino)methyl]morpholin-4-yl]-7-azaspiro[3.5]nonan-7-yl}methyl)piperidin-1-yl]-1,2-oxazol-5-yl}-3-methylbutanoyl]-4-hydroxy-N-[(1S)-1-[4-(4-methyl-1,3-thiazol-5-yl)phenyl]ethyl]pyrrolidine-2-carboxamide] | < 2.5 nM | > 75%
10 | Cc1ncsc1-c1ccc([C@H](C)NC(=O)[C@@H]2C[C@@H](O)CN2C(=O)C(c2cc(N3CCC(OC(=O)N4CCC(Oc5cc(N6CCN(c7cc(-c8ccccc8O)nnc7N)CC6)ccn5)CC4)CC3)no2)C(C)C)cc1 (stereo partly drawn) [Compound 144, 1-(5-{1-[(2S,4R)-4-hydroxy-2-{[(1S)-1-[4-(4-methyl-1,3-thiazol-5-yl)phenyl]ethyl]carbamoyl}pyrrolidin-1-yl]-3-methyl-1-oxobutan-2-yl}-1,2-oxazol-3-yl)piperidin-4-yl 4-[(4-{4-[3-amino-6-(2-hydroxyphenyl)pyridazin-4-yl]piperazin-1-yl}pyridin-2-yl)oxy]piperidine-1-carboxylate] | 2.5 to 10 nM | > 75%
11 | CC(C)[C@H](C(=O)N1C[C@H](O)C[C@H]1C(=O)N[C@@H](C)c1ccc(Cl)cc1)c1cc(N2CCC(CN3CCC(O[C@H]4C[C@H](Oc5cc(N6C7CCC6CN(c6cc(-c8ccccc8O)nnc6N)C7)ccn5)C4)CC3)CC2)no1 [Compound 46, (2S,4R)-N-[(1S)-1-(4-chlorophenyl)ethyl]-4-hydroxy-1-[(2S)-3-methyl-2-{3-[4-({4-[(1r,3r)-3-[(4-{3-[3-amino-6-(2-hydroxyphenyl)pyridazin-4-yl]-3,8-diazabicyclo[3.2.1]octan-8-yl}pyridin-2-yl)oxy]cyclobutoxy]piperidin-1-yl}methyl)piperidin-1-yl]-1,2-oxazol-5-yl}butanoyl]pyrrolidine-2-carboxamide] | ≥ 30 nM | –
12 | CC(C)[C@@H](C(=O)N1C[C@H](O)C[C@H]1C(=O)N[C@@H](C)c1ccc(C#N)cc1)c1cc(N2CCC(OCCN3CCC(Oc4cc(N5C6CCC5CN(c5cc(-c7ccccc7O)nnc5N)C6)ccn4)CC3)CC2)no1 [Compound 151, (2S,4R)-1-[(2R)-2-{3-[4-(2-{4-[(4-{3-[3-amino-6-(2-hydroxyphenyl)pyridazin-4-yl]-3,8-diazabicyclo[3.2.1]octan-8-yl}pyridin-2-yl)oxy]piperidin-1-yl}ethoxy)piperidin-1-yl]-1,2-oxazol-5-yl}-3-methylbutanoyl]-N-[(1S)-1-(4-cyanophenyl)ethyl]-4-hydroxypyrrolidine-2-carboxamide] | 2.5 to 10 nM | > 75%
13 | CC(C)[C@@H](C(=O)N1C[C@H](O)C[C@H]1C(=O)N[C@@H](C)c1ccc(-c2ccnn2C)cc1)c1cc(N2CCC(CN3CCC(O[C@H]4C[C@H](Oc5cc(/C=C/c6cc(-c7ccccc7O)nnc6N)ccn5)C4)CC3)CC2)no1 [Compound 30, (2S,4R)-4-hydroxy-N-[(1S)-1-[4-(1-methyl-1H-pyrazol-5-yl)phenyl]ethyl]-1-[(2R)-3-methyl-2-{3-[4-({4-[(1r,3r)-3-({4-[(1E)-2-[3-amino-6-(2-hydroxyphenyl)pyridazin-4-yl]ethenyl]pyridin-2-yl}oxy)cyclobutoxy]piperidin-1-yl}methyl)piperidin-1-yl]-1,2-oxazol-5-yl}butanoyl]pyrrolidine-2-carboxamide] | < 2.5 nM | > 75%

Reference: US20250059198A1, “BRM DEGRADING COMPOUNDS AND ASSOCIATED METHODS OF USE” (Arvinas Operations, Inc., priority 2021, published 2025)
